Source: the NIST ThermoML archive (doi:10.1016/j.tca.2017.12.006)
± gives the expanded uncertainty stated by the source.

Conditions: Liquid, Transpiration method

CCCCOC(=O)CCC(C)=O [butyl levulinate]
Conditions | vapor or sublimation pressure [kPa]
298.2 K | 0.00393 ± 0.00026
303.2 K | 0.00611 ± 0.00043
308.1 K | 0.00895 ± 0.00061
313 K | 0.01421 ± 0.00094
318 K | 0.01999 ± 0.0013
323 K | 0.03006 ± 0.0019
327.9 K | 0.0443 ± 0.0028
332.8 K | 0.0632 ± 0.004
337.8 K | 0.0939 ± 0.006
342.8 K | 0.1289 ± 0.008
347.8 K | 0.181 ± 0.011

COC(=O)CCC(C)=O [methyl levulinate]
Conditions | vapor or sublimation pressure [kPa]
293.5 K | 0.0302 ± 0.002
298.5 K | 0.0442 ± 0.0028
303.3 K | 0.0638 ± 0.004
308.5 K | 0.0929 ± 0.0058
313.4 K | 0.1359 ± 0.0085
318.3 K | 0.1837 ± 0.012
323.2 K | 0.2626 ± 0.017
328.2 K | 0.3572 ± 0.022
333.2 K | 0.501 ± 0.03
338.2 K | 0.659 ± 0.04
343.1 K | 0.878 ± 0.055
348.2 K | 1.142 ± 0.072
353.2 K | 1.473 ± 0.091

CCOC(=O)CCC(C)=O [ethyl levulinate]
Conditions | vapor or sublimation pressure [kPa]
293.5 K | 0.0169 ± 0.0011
298.4 K | 0.0253 ± 0.0016
303.3 K | 0.0375 ± 0.0023
308.3 K | 0.0542 ± 0.0035
313.3 K | 0.0795 ± 0.005
318.3 K | 0.1129 ± 0.0071
323.3 K | 0.1613 ± 0.01
328.2 K | 0.2312 ± 0.015
333.1 K | 0.3106 ± 0.019
338.1 K | 0.415 ± 0.025
343.1 K | 0.553 ± 0.035
348.8 K | 0.758 ± 0.047
